{"source": "patent EP1154766B1", "about": "“USE OF R-ARYL PROPIONIC ACIDS FOR PRODUCING MEDICAMENTS TO TREAT DISEASES IN HUMANS AND ANIMALS, WHEREBY SAID DISEASES CAN BE […] INFLUENCED BY INHIBITING THE ACTIVATION OF NF-KAPPA B” (PAZ Arzneimittel- Entwicklungsgesellschaft mbH, priority 1999, dated 2000)", "key": {"NF-κB": {"system": "NF-κB", "assay": "Inhibition of NF-κB activation, method not stated", "details": "arylpropionic acid derivatives without notable CoA thioester formation in humans"}, "[1]": {"system": "Zymosan-induzierte Rattenpfotenödem", "assay": "Zymosan-induced rat paw oedema (plethysmograph)", "format": "in vivo, Ratte", "details": "for Pfotenvolumen: rat, intraplantar zymosan, R-Flurbiprofen 1 to 27 mg/kg intraperitoneal, Abb. 3a-c", "text": "Da der nukleäre Transkriptionsfaktor NF-κB u.a. für die Bildung, einer Reihe von Enzymen mit proinflammatorischer und ödembildender Eigenschaften verantwortlich ist, wurde der Einfluß von R-Flurbiprofen auf das Zymosan-induzierte Rattenpfotenödem bestimmt (Methode beschrieben bei: Meller ST und Gebhart GF: Intraplantar zymosan as a reliable, quantifiable model of thermal and mechanical hyperalgesia in the rat; European Journal of Pain, 1, 43-52 (1997). Abbildung 3 a - c faßt die Ergebnisse zusammen. Abb. 3a - c: Zeitabhängige Zunahme des Rattenpfotenvolumens (gemessen mit einem Plethysmographen) nach intraplantarer Applikation von Zymosan. Nach Applikation von Zymosan [Meller and Gebhart (s.o.)] in eine Hinterpfote der Ratte kommt es als Zeichen einer Entzündung zur Zunahme des Pfotenvolumens (Placebo-Gruppe, Applikation von Vehicle = Phosphatpuffer (PP)). […] Dieser Effekt war besonders ausgeprägt zwischen der 2. und 6. Stunde nach Zymosan-Applikation. Dexamethason (0,5 mg/kg Körpergewicht), ein bekannter Hemmer der NF-κB Aktivierung, wurde als Positivkontrolle eingesetzt. […] S-Flurbiprofen ist ein bekannter Hemmer der Cyclooxygenasen. Abb. 4: Zusammenfassung der Effekte von 9 mg/kg R-Flurbiprofen, 9 mg/kg S-Flurbiprofen und 0,5 mg/kg Dexamethason gegen Placebo (V) über 24 Stunden."}, "[2]": {"system": "akutem Postepisiotomie-Schmerz", "assay": "Placebo-controlled double-blind study in acute post-episiotomy pain", "format": "in vivo, Frauen", "details": "single oral dose 25 mg or 100 mg, pain scale 0-3 over 360 min, Abb. 1", "procedure": "Abb. 1: Placebo-kontrollierte Doppelblind-Studie an 180 Frauen mit akutem Postepisiotomie-Schmerz (Mittelwertkurven)\nDie hospitalisierten Patienten wurden in drei Medikationsgruppen mit je 50 Patienten und einer Placebogruppe (30 Patienten) randomisiert. Jede Patientin erhielt innerhalb 48 Stunden nach der ansonsten normal verlaufenden Entbindung eine Einzeldosis der zu untersuchenden Studienmedikation (25 mg R(-)Flurbiprofen oder 100 mg R(-)Flurbiprofen oder 1000 mg Paracetamol) oder ein Placebo oral verabreicht. Kurz vor der oralen Gabe der Testpräparate bzw. des Placebos und zu genau festgelegten Untersuchungszeitpunkten (15, 30, 45, 60, 120, 180, 240, 300 und 360 Minuten) wurden die Patienten bezüglich ihres Schmerzempfindens befragt. Die Wirksamkeit der einzelnen Präparate wurde anhand einer Schmerzempfindungs-Skala (0 = keine, 1 = mild, 2 = moderat, 3 = stark) beurteilt. Die zeitlichen Verläufe sind in den in Abbildung 1 wiedergegebenen Mittelwertkurven der einzelnen Patientengruppen zusammengefaßt."}, "[3]": {"system": "NF-κB (p50/p65 Komplex von NF-κB)", "assay": "Electro mobility-shift assay (gel retention analysis) of LPS-induced NF-κB activation in RAW cells", "format": "cell-based", "text": "Die erfindungsgemäßen Arzneimittel auf der Basis von R-Arylpropionsäuren und deren Derivaten gemäß Anspruch 1 als Hemmer der NF-κB-Aktivierung zur Therapie von Erkrankungen, welche durch die Modifizierung der NF-κB-Aktiierung beeinflußt werden, beruht auf folgenden experimentellen Untersuchungen: Abb. 2: Konzentrationsabhängiger Einfluß von R- und S-Flurbiprofen auf die Aktivierung des Transkriptionsfaktors NF-κB in RAW-Zellen. Die Gelretentionsanalyse (Electro Mobility-Shift Assay; DIG Gel Shift Kit, Boehringer Mannheim) zeigt, daß LPS (1 µg/ml) zu einer Aktivierung von NF-κB (p50/p65 Komplex von NF-κB) führt (Spur Nr. 2 und 10). […] Eine densitometrische Auswertung ergab, daß S-Flurbiprofen hinsichtlich dieser Eigenschaften ca. 100 mal weniger potent war (Spur Nr. 11, 12, 13,14, gegen Spur Nr. 10 als Kontrolle). Spur Nr. 1 und 8 zeigen jeweils unstimulierte Kontrollzellen."}, "[4]": {"system": "gastrointestinale Verträglichkeit", "details": "studies in humans, literature; cited from earlier work"}, "[5]": {"system": "postoperative dental pain", "details": "clinical study in patients, literature; cited from earlier work"}}, "data": [{"smiles": "CC(C(=O)O)c1ccc(-c2ccccc2)c(F)c1", "note": "(stereo not shown) [Flurbiprofen]", "values": [{"measurement": "Hemmung der Aktivierung von NF-κB", "setting": "NF-κB", "value": "ausgeprägte Hemmung der Aktivierung von NF-κB"}]}, {"smiles": "CC(C(=O)O)c1cccc(C(=O)c2ccccc2)c1", "note": "(stereo not shown) [Ketoprofen]", "values": [{"measurement": "Hemmung der Aktivierung von NF-κB", "setting": "NF-κB", "value": "ausgeprägte Hemmung der Aktivierung von NF-κB"}]}, {"smiles": "COc1ccc2cc([C@H](C)C(=O)O)ccc2c1", "note": "[Naproxen]", "values": [{"measurement": "Hemmung der Aktivierung von NF-κB", "setting": "NF-κB", "value": "ausgeprägte Hemmung der Aktivierung von NF-κB"}]}, {"smiles": "C[C@@H](C(=O)O)c1ccc(-c2ccccc2)c(F)c1", "note": "[R-Flurbiprofen]", "values": [{"measurement": "Effekte auf das Pfotenvolumen über 24 Stunden gegen Placebo", "setting": "[1]; 9 mg/kg, compared with 0,5 mg/kg Dexamethason, Abb. 4", "value": "vergleichbar mit denen nach 0,5 mg/kg Dexamethason"}, {"measurement": "Zeitraum, in dem der Effekt auf das Pfotenvolumen besonders ausgeprägt war", "setting": "[1]; hours after zymosan application", "value": "zwischen der 2. und 6. Stunde"}, {"measurement": "Pfotenvolumen", "setting": "[1]", "value": "überraschende Abnahme des Pfotenvolumens"}, {"measurement": "schmerzlindernde Wirkung", "setting": "[2]", "value": "nachgewiesen"}, {"measurement": "Hemmung der LPS induzierten Aktivierung von NF-κB", "setting": "[3]; RAW-Zellen, LPS 1 µg/ml, micromolar concentrations, Abb. 2", "value": "waren in der Lage diese LPS induzierte Aktivierung von NF-κB zu hemmen"}, {"measurement": "Hemmung der NF-κB Aktivierung, mal potenter als die entsprechenden S-Enantiomere", "setting": "[3]; relative to the corresponding S-enantiomer", "value": "ca. 100 mal"}, {"measurement": "gastrointestinale Verträglichkeit", "setting": "[4]", "value": "gute gastrointestinale Verträglichkeit"}]}, {"smiles": "C[C@@H](C(=O)O)c1cccc(C(=O)c2ccccc2)c1", "note": "[R-Ketoprofen]", "values": [{"measurement": "schmerzlindernde Wirkung", "setting": "[5]", "value": "nachgewiesen"}]}, {"smiles": "C[C@H](C(=O)O)c1ccc(-c2ccccc2)c(F)c1", "note": "[S-Flurbiprofen, reference compound]", "values": [{"measurement": "Pfotenvolumen", "setting": "[1]", "value": "Reduktion des Pfotenvolumens"}, {"measurement": "Potenz der Hemmung der NF-κB Aktivierung, mal weniger potent than R-Flurbiprofen", "setting": "[3]; densitometric evaluation of the gel shift, RAW-Zellen, LPS 1 µg/ml", "value": "ca. 100 mal"}]}]}
